# Experimental data taken from PMC11108860 (Heliyon, 2024).
# Where two headings read alike, the source gives them in different places.
# Key:
# [1] = system: K562 cells; experiment: Western blotting of proliferation- and apoptosis-related proteins in K562 cells; format: cell-based, human; settings: for cleaved caspase-3 after inhibitor treatment: Fig. 6B,D, similar to EGCG treatment
# [2] = system: K562 cells; experiment: Calcium imaging; format: cell-based, human
# [3] = system: Molt-4 cells; experiment: Calcium imaging; format: cell-based
# [4] = target: T1, OR2AT4 (Homo sapiens, UniProt A6NND4); experiment: Calcium imaging; format: cell-based; settings: 0 to 1 mM; OR2AT4-expressing cells
# T1 sequence (A6NND4 1-320): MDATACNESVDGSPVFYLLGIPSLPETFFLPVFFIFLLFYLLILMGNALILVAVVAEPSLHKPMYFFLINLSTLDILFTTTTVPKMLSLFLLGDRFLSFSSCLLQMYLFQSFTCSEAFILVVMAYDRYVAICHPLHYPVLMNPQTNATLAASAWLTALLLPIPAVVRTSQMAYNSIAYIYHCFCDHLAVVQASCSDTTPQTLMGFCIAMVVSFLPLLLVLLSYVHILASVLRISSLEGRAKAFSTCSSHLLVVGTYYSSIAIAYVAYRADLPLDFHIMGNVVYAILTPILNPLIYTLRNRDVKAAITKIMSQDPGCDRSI
# [5] = system: K562 cells; experiment: Cell viability assay; format: cell-based, human; settings: for cell viability: K562; for IC50: Homo sapiens, read-out: IC50 (cell viability)
# [6] = target: T2, OR2AT4-6xHis protein (Homo sapiens, UniProt A6NND4); experiment: SPR sensorgrams on immobilized OR2AT4-6xHis, concentration series; format: binding; settings: 100 μM (Fig. 2A)
# T2 sequence (A6NND4 1-320): T1 sequence (A6NND4 1-320)
# [7] = system: Molt-4 cells; experiment: Cell viability assay; format: cell-based; settings: 24, 48, and 72 h
# [8] = system: K562 cells; experiment: Apoptosis assay; format: cell-based, human; settings: for percentage of total apoptotic cells: 200 μM
# [9] = K562, EGCG 200 μM, 30 min after treatment
# [10] = OR2AT4 siRNA-transfected K562 cells, EGCG treatment
structure (smiles),measurement,setting,value
"C[S+]([O-])c1ccc(-c2nc(-c3ccncc3)c(-c3ccc(F)cc3)[nH]2)cc1 (stereo not drawn) [SB203580, reference compound]",cleaved caspase-3 after inhibitor treatment,[1]; K562,upregulation
same,p-p38 MAPK,"[1]; K562, Fig. 6C",downregulation
"CC1=CCC(CCC(C)C(C)O)C1(C)C (stereo not drawn) [Sandalore, reference compound]",intracellular calcium response in K562 cells,[2]; 2 mM,increased intracellular Ca^2+ levels
same,intracellular calcium response in Molt-4 cells,[3]; 2 mM,no immediate calcium response
same,"intracellular calcium response, dose-response",[4],increased calcium response in a concentration-dependent manner
same,cell viability,[5]; Fig. S2,decreased cell viability in a concentration-dependent manner
same,reactivity with OR2AT4 recombinant protein (SPR),[6],confirming the reactivity
"CCCCCCCCCCCCCCCCCCOP(=O)([O-])OC1CC[N+](C)(C)CC1 [Perifosine, reference compound]",p-Akt,"[1]; K562, Fig. 6A",downregulation
same,cleaved caspase-3 after inhibitor treatment,[1]; K562,upregulation
"O=C(O[C@@H]1Cc2c(O)cc(O)cc2O[C@@H]1c1cc(O)c(O)c(O)c1)c1cc(O)c(O)c(O)c1 [EGCG, (−)-epigallocatechin gallate]",intracellular calcium response in K562 cells,[2]; 0.2 mM,elevated the calcium response
same,intracellular calcium response in Molt-4 cells,[3]; 200 μM,no immediate calcium response
same,"intracellular calcium response, dose-response",[4],increased intracellular calcium levels in a concentration-dependent manner
same,IC50,"[5]; K562, 48 h",146 µM
same,IC50,"[5]; K562, 72 h",158 µM
same,cell viability,"[5]; 24, 48, and 72 h, 0-500 μM","decreased cell viability in a time- (24, 48, and 72 h) and concentration-dependent manner"
same,concentrations with sudden onset of cell death,[7],above 100 μM
same,expression of Bax,[1]; K562,no significant difference
same,expression of Bcl-2,[1]; K562,no significant difference
same,"levels of cleaved caspase-3, time course","[1]; K562, 200 μM, 24 and 48 h",increased in a time-dependent manner
same,protein level of phosphor-AKT,[1]; [9],downregulated
same,protein level of phosphor-p38 MARK,[1]; [9],downregulated
same,expression of phosphor-STAT5,"[1]; K562, EGCG 200 μM, starting from 15 min",began to decrease
same,expression levels of cleaved caspase-8,"[1]; K562, time- and concentration-dependent",upregulated
same,caspase-8 in OR2AT4 siRNA-transfected K562 cells,[1]; [10],significantly reduced
same,cleaved caspase-3 in OR2AT4 siRNA-transfected K562 cells,[1]; [10],significantly reduced
same,"percentage of late apoptotic cells, time course","[8]; 200 μM, 24, 48, and 72 h",increased the percentage of late apoptotic cells in a time-dependent manner
same,percentage of total apoptotic cells,[8]; 24 h,50%
same,percentage of total apoptotic cells,[8]; 48 h,58.03%
same,percentage of total apoptotic cells,[8]; 72 h,64.52%
COc1cc2c3cc1Oc1c(OC)c(OC)cc4c1[C@@H](Cc1ccc(O)c(c1)Oc1ccc(cc1)C[C@@H]3N(C)CC2)N(C)CC4 [Berbamine],"intracellular calcium response, dose-response",[4],increased intracellular calcium levels in a concentration-dependent manner
